Assay results taken from patent US20240158446A1, “CYCLIC COMPOUND HAVING SELECTIVE INHIBITORY ACTION ON KRAS OVER HRAS AND NRAS” (CHUGAI SEIYAKU KABUSHIKI KAISHA, priority 2021, published 2024).
Read-outs that look alike come from different tables or passages of the source. *1 amine or outer side, *2 acyl side, *3 side chain or, on linkers, in order; H or OH if unused. Where a SMILES comes first, the peptide text is derived from it. Bridges are numbered along the chain shown (N, C = ends). [ ]: non-standard residue; d: D form. The star is where a group is joined. ξ: configuration not given here. hPhe(3-Cl-4-CF3) = N[C@@H](CCc1ccc(C(F)(F)F)c(Cl)c1)C(=O)O; X38 = C#CCN([C@@H](Cc1ccc(C(F)(F)F)cc1)C(=O)[*:2])[*:1]; NPrPhe(4-CF3) = CCCN[C@@H](Cc1ccc(C(F)(F)F)cc1)C(=O)O; X26 = C=CCN([C@@H](Cc1ccccc1)C(=O)[*:2])[*:1]; NMePhe(4-Me) = CN[C@@H](Cc1ccc(C)cc1)C(=O)O; Morpholine(3S-CO) = O=C(O)[C@@H]1COCCN1; NMeGly(cPent) = CN[C@H](C(=O)O)C1CCCC1; Pro(4,4-F2) = O=C(O)[C@@H]1CC(F)(F)CN1; NMeNle(5-ene) = C=CCC[C@H](NC)C(=O)O; NMeGly(cBu) = CN[C@H](C(=O)O)C1CCC1; dIle(3ξ) = CCC(C)[C@@H](N)C(=O)O; NMeD = CN[C@@H](CC(=O)O)C(=O)O; NMeL = CN[C@@H](CC(C)C)C(=O)O; Morpholide = C1CN(*)CCO1; NMeA = CN[C@@H](C)C(=O)O; Ac5c = NC1(C(=O)O)CCCC1; Aze = O=C(O)[C@@H]1CCN1; NEtG = CCNCC(=O)O; Sar = CNCC(=O)O

Experiments:
[1] = biological target: GDP-bound HRAS wild-type protein (Homo sapiens, UniProt P01112); test: Binding to HRAS by surface plasmon resonance (SPR), Single Cycle Kinetics; details: SPR, GDP-bound HRAS wild-type protein vs GDP-bound KRAS wild-type protein
[2] = biological target: GDP-bound NRAS wild-type protein (Homo sapiens, UniProt P01111); test: Binding to NRAS by surface plasmon resonance (SPR), Single Cycle Kinetics; details: SPR, GDP-bound NRAS wild-type protein vs GDP-bound KRAS wild-type protein
[3] = biological target: GDP-bound KRAS wild-type protein (Homo sapiens, UniProt P01116); test: Binding to KRAS by surface plasmon resonance (SPR), Single Cycle Kinetics; details: GDP-bound KRAS wild-type protein, read-out: KRAS KD
[4] = SPR Single Cycle Kinetics, 1:1 binding model

Sequence of GDP-bound NRAS wild-type protein (P01111 whole entry): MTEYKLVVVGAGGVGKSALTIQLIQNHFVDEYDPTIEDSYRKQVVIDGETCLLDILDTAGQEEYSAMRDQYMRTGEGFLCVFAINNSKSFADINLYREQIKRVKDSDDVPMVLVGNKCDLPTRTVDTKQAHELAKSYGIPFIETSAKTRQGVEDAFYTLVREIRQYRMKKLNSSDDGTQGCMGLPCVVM
Sequence of GDP-bound HRAS wild-type protein (P01112 whole entry): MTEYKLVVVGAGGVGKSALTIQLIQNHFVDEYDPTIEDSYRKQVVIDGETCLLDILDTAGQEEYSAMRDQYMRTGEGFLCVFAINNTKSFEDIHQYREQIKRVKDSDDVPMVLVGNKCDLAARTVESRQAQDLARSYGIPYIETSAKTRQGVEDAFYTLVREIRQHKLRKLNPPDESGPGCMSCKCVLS
Sequence of GDP-bound KRAS wild-type protein (P01116 whole entry): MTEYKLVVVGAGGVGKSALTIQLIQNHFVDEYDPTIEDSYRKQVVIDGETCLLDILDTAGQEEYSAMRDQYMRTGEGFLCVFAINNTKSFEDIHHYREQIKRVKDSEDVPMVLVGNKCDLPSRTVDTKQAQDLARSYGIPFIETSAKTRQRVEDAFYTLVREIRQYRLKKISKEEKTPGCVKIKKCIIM

SMILES | Kd [3, 4] [nM] | Kd ([3]; SPR, Single Cycle Kinetics) [nM] | HRAS/KRAS (ratio of KD value for HRAS to KD value for KRAS) [1] | NRAS/KRAS (ratio of KD value for NRAS to KD value for KRAS) [2] | further results
CCCN1C(=O)[C@@H]2CCN2C(=O)[C@H](C)N(C)C(=O)[C@H]([C@@H](C)CC)NC(=O)[C@H](C2CCC2)N(C)C(=O)C[C@@H](C(=O)N2CCOCC2)N(C)C(=O)[C@H](C2CCCC2)N(C)C(=O)C2(CCCC2)NC(=O)[C@@H]2CC(F)(F)CN2C(=O)[C@H](CCc2ccc(C(F)(F)F)c(Cl)c2)NC(=O)CN(C)C(=O)[C@@H]1Cc1ccc(C(F)(F)F)cc1 [PP0204] ([NMeGly(cBu)]I[NMeA][Aze][NPrPhe(4-CF3)][Sar][hPhe(3-Cl-4-CF3)][Pro(4,4-F2)][Ac5c][NMeGly(cPent)][NMeD]-Morpholide; lactam N-11) | 0.21 | – | C (A compound having a KD ratio of 0.1 or more and less than 3 is denoted as C) | C (A compound having a KD ratio of 0.1 or more and less than 3 is denoted as C) | –
CCO[C@@H]1C[C@H]2C(=O)NC3(CCC3)C(=O)N(C)[C@@H](C(CC)CC)C(=O)N(C)[C@H](C)CC(=O)N(C)[C@@H](CC3CCCC3)C(=O)N[C@@H]([C@@H](C)CC)C(=O)N(C)CC(=O)N(C)[C@H]3C/C=C\CCN(C3=O)[C@@H](Cc3ccc(F)cc3C)C(=O)N(C)CC(=O)N[C@@H](CCc3cc(F)c(C(F)(F)F)c(F)c3)C(=O)N2C1 [PP1522] | – | – | – | – | HRAS/KRAS (ratio of KD value for HRAS to KD value for KRAS) ([1]; KD ratio class): A (a compound having 10 or more and less than 20 is denoted as A); NRAS/KRAS (ratio of KD value for NRAS to KD value for KRAS) ([2]; KD ratio class): A (a compound having 10 or more and less than 20 is denoted as A); Kd ([3]; SPR, Single Cycle Kinetics, 1:1 binding model): 8.8 nM
CCC[C@H]1C(=O)N[C@@H]([C@@H](C)CC)C(=O)N(C2CC2)CC(=O)N(C)[C@H]2C/C=C\CCN(C2=O)[C@@H](Cc2ccc(C(F)(F)F)cc2)C(=O)N(C)CC(=O)N[C@@H](CCc2ccc(C(F)(F)F)c(OC)c2)C(=O)N2C[C@H](OCC)C[C@H]2C(=O)N(C)C2(CCC2)C(=O)N(C)[C@@H](C(CC)CC)C(=O)N(C)[C@H](C(=O)N(C)C)CC(=O)N1C [PP2313] | – | 0.49 | A (a compound having 10 or more and less than 20 is denoted as A) | AA (a compound having 20 or more is denoted as AA) | –
CCO[C@@H]1C[C@H]2C(=O)NC3(CCC3)C(=O)N(C)[C@@H](C3CCCC3)C(=O)N(C)[C@H](C(=O)N3CCOCC3)CC(=O)N(C)[C@@H](Cc3ccc(C)cc3)C(=O)N[C@@H]([C@@H](C)CC)C(=O)N(C)CC(=O)N(C)[C@H]3CCCCCN(C3=O)[C@@H](Cc3ccc(C(F)(F)F)cc3)C(=O)N(C)CC(=O)N[C@@H](CCc3cc(F)c(C(F)(F)F)c(F)c3)C(=O)N2C1 [PP0933] | – | 1.6 | B (a compound having 3 or more and less than 10 is denoted as B) | A (a compound having 10 or more and less than 20 is denoted as A) | –
CC[C@H](C)[C@@H]1NC(=O)[C@H](CC(C)C)N(C)C(=O)C[C@@H](C(=O)N(C)C)N(C)C(=O)[C@H](C2CCCC2)N(C)C(=O)C2(CCCC2)NC(=O)[C@@H]2CCCN2C(=O)[C@H](CCc2cc(F)c(C(F)(F)F)c(F)c2)NC(=O)CN(C)C(=O)[C@H](Cc2ccc(C(F)(F)F)cc2)N2CCCCC[C@@H](C2=O)N(C)C(=O)CN(C)C1=O [PP0507] | 0.94 | – | – | – | HRAS/KRAS (ratio of KD value with respect to HRAS to KD value with respect to KRAS) [1]: B (a compound having 3 or more and less than 10 is denoted as B); NRAS/KRAS (ratio of KD value with respect to NRAS to KD value with respect to KRAS) [2]: B (a compound having 3 or more and less than 10 is denoted as B)

Continued, in another order:

Kd [3, 4] [nM] | Kd ([3]; SPR, Single Cycle Kinetics) [nM] | SMILES | HRAS/KRAS (ratio of KD value for HRAS to KD value for KRAS) [1] | NRAS/KRAS (ratio of KD value for NRAS to KD value for KRAS) [2] | further results
180 | – | C=CCC[C@H]1C(=O)N(CC=C)[C@@H](Cc2ccccc2)C(=O)N(C)CC(=O)N[C@@H](CCc2ccc(C(F)(F)F)c(Cl)c2)C(=O)N2CCC[C@H]2C(=O)NC2(CCCC2)C(=O)N(C)[C@@H](C2CCCC2)C(=O)N(C)[C@H](C(=O)N2CCOCC2)CC(=O)N(C)[C@@H](CC(C)C)C(=O)N[C@H](C(C)CC)C(=O)N(C)CC(=O)N1C (stereo partly drawn) [PP0599] ([NMeL][dIle(3ξ)][Sar][NMeNle(5-ene)][X26][Sar][hPhe(3-Cl-4-CF3)]P[Ac5c][NMeGly(cPent)][NMeD]-Morpholide; lactam N-11) | – | – | HRAS/KRAS (ratio of KD value with respect to HRAS to KD value with respect to KRAS) [1]: B (a compound having 3 or more and less than 10 is denoted as B); NRAS/KRAS (ratio of KD value with respect to NRAS to KD value with respect to KRAS) [2]: C (A compound having a KD ratio of 0.1 or more and less than 3 is denoted as C)
– | 0.076 | CC[C@H](C)[C@@H]1NC(=O)[C@H](CC(C)C)N(C)C(=O)C[C@@H](C(=O)N2CCOCC2)N(C)C(=O)[C@H](C2CCCC2)N(C)C(=O)C2(CCC2)NC(=O)[C@@H]2C[C@@H](OC)CN2C(=O)[C@H](CCc2cc(F)c(C(F)(F)F)c(F)c2)NC(=O)CN(C)C(=O)[C@H](Cc2ccc(C(F)(F)F)cc2)N2CCCC[C@@H](C2=O)N(C)C(=O)CN(C)C1=O [PP1003] | B (a compound having 3 or more and less than 10 is denoted as B) | C (A compound having a KD ratio of 0.1 or more and less than 3 is denoted as C) | –
1.4 | – | CCCN1C(=O)CN(C)C(=O)CN(CC)C(=O)[C@H]([C@@H](C)CC)NC(=O)[C@H](CC(C)C)N(C)C(=O)C[C@@H](C(=O)N2CCOCC2)N(C)C(=O)[C@H](C2CCCC2)N(C)C(=O)C2(CCCC2)NC(=O)[C@@H]2COCCN2C(=O)[C@H](CCc2ccc(C(F)(F)F)c(Cl)c2)NC(=O)CN(C)C(=O)[C@@H]1Cc1ccc(C(F)(F)F)cc1 [PP0299] ([NMeL]I[NEtG][Sar][NPrPhe(4-CF3)][Sar][hPhe(3-Cl-4-CF3)][Morpholine(3S-CO)][Ac5c][NMeGly(cPent)][NMeD]-Morpholide; lactam N-11) | B (a compound having 3 or more and less than 10 is denoted as B) | B (a compound having 3 or more and less than 10 is denoted as B) | –
0.34 | – | CC[C@H](C)[C@@H]1NC(=O)[C@H](CC(C)C)N(C)C(=O)C[C@@H](C(=O)N2CCOCC2)N(C)C(=O)[C@H](C2CCCC2)N(C)C(=O)C2(CCCC2)NC(=O)[C@@H]2CCCN2C(=O)[C@H](CCc2ccc(C(F)(F)F)c(Cl)c2)NC(=O)CN(C)C(=O)[C@H](Cc2ccc(C)cc2)N(C)C(=O)CN(CC)C(=O)CN(C)C1=O [PP0019] ([NMeL]I[Sar][NEtG][NMePhe(4-Me)][Sar][hPhe(3-Cl-4-CF3)]P[Ac5c][NMeGly(cPent)][NMeD]-Morpholide; lactam N-11) | C (A compound having a KD ratio of 0.1 or more and less than 3 is denoted as C) | C (A compound having a KD ratio of 0.1 or more and less than 3 is denoted as C) | –
0.25 | – | C#CCN1C(=O)CN(C)C(=O)CN(C)C(=O)[C@H]([C@@H](C)CC)NC(=O)[C@H](CC(C)C)N(C)C(=O)C[C@@H](C(=O)N2CCOCC2)N(C)C(=O)[C@H](C2CCCC2)N(C)C(=O)C2(CCCC2)NC(=O)[C@@H]2CCCN2C(=O)[C@H](CCc2ccc(C(F)(F)F)c(Cl)c2)NC(=O)CN(C)C(=O)[C@@H]1Cc1ccc(C(F)(F)F)cc1 [PP0130] ([NMeL]I[Sar][Sar][X38][Sar][hPhe(3-Cl-4-CF3)]P[Ac5c][NMeGly(cPent)][NMeD]-Morpholide; lactam N-11) | C (A compound having a KD ratio of 0.1 or more and less than 3 is denoted as C) | C (A compound having a KD ratio of 0.1 or more and less than 3 is denoted as C) | –
